# Test results reported in patent US20230172923A1, “METHODS OF TREATING CYTOKINE-RELATED ADVERSE EVENTS” (BRISTOL-MYERS SQUIBB COMPANY, priority 2020, published 2023).
# “Also recorded” adds a separate entry of the source.
# Columns and labels:
# Assay type in all cases: cell-based, human
# IL-6 [1] = assay: LPS-induced IL-6 secretion from isolated monocytes (MSD); conditions: overnight (~17 hours) 1000 nM lenalidomide, 100 nM pomalidomide, 10 nM iberdomide or 1 nM Compound 1; LPS 4 hours
# Protocol: (§1) Monocytes from healthy volunteers were seeded at a concentration of 1×10^6 cells/ml and treated with the indicated concentration of IMiD/CELMoD agents overnight (~17 hours). The next morning, the monocytes were incubated with the indicated concentration of LPS for 4 hours, before IL-6 levels in the supernatant were assessed using an MSD assay.
# eripheral blood mononuclear cells (PBMCs) were isolated from the blood of four healthy human donors by Ficoll cell separation, and then monocytes were isolated from these PBMCs by negative selection. The enriched monocytes were seeded at a concentration of 1×10^6 cells/ml and incubated overnight (~17 hours) with 1000 nM lenalidomide, 100 nM pomalidomide, 10 nM iberdomide or 1 nM Compound 1, or control DMSO (0.001%), before stimulation with various concentrations of LPS for IL-6 secretion.
# After 4 hours, the cell culture was spun down at 300 g for 5 minutes to remove cells, and the supernatant was subjected to Meso Scale Discovery (MSD) analysis to quantify secreted IL-6.
# IL-6 [2] = assay: LPS-induced IL-6 secretion from monocytes with nigericin (MSD); conditions: overnight 1 nM, 10 nM or 100 nM Compound 1; LPS 4 hours, then 5 µg/ml nigericin 1 hour
# Protocol: as §1, with “Compound 1 overnight.” for “IMiD/CELMoD agents overnight (~17 hours).”, “hours, and then stimulation with 5 ug/ml of nigericin for 1 hour,” for “hours,”
# Monocytes from two healthy human donors were isolated as in Example 1. Here isolated monocytes (1×10^6 cells/ml) were treated with various concentrations of Compound 1 (1 nM, 10 nM, or 100 nM), or control DMSO (0.001%), overnight (~17 hours) before stimulation with various concentrations of LPS.
# After 4 hours, 5 µg/ml of nigericin was added to activate the inflammasome for 1 hour, supernatants were harvested, and MSD analysis was performed to quantify secreted IL-6.
# TNF-alpha = assay: CC-93269-induced TNF-alpha secretion, co-culture of PBMCs and K562-BCMA cells (MSD); conditions: Compound 1 pre-treatment; 24 hours
# Protocol: (§2) Co-cultures of PBMCs, target K562-BCMA cells and CC-93269 were prepared as for FIG. 9. At 6-, 24- and 48-hours post-incubation, the cell culture media was collected and levels of TNF-alpha (FIG. 12A) and IL-2 (FIG. 12B) in the supernatant were assessed using an MSD assay. ULOQ = Upper limit of quantification.
# (§3) Fresh PBMCs were isolated from the blood (buffy coat) of healthy human volunteers by Ficoll based cell separation. The percentage of CD3+ T-cells (total) in the PBMCs was quantified by flow cytometry. The isolated PBMCs were seeded in 12-well plates at a concentration of 1.5×10^6 cells/ml and treated with 1 nM Compound 1 (CC-92480), 1000 nM lenalidomide, 100 nM pomalidomide, 10 nM iberdomide, or control DMSO overnight (~17 hours).
# (§4) After overnight incubation, target K562-BCMA cells (overexpress surface BCMA at a very high level) or control K562-MCB cells (no BCMA expression) were added to the wells at a ratio of 5:1, T-cells to target cells. K562-BCMA and K562-MCB are an isogenic pair that are derived from a chronic myelogenous leukemia (CML,) cell line. CC-93269 was added to the co-culture at various concentrations and incubated. CC-93269 is an anti-BCMA anti-CD3 bispecific T cell-engaging antibody and is also referred to herein as 42-TCBcv.
# IL-2 = assay: CC-93269-induced IL-2 secretion, co-culture of PBMCs and K562-BCMA cells (MSD); conditions: Compound 1 pre-treatment; 24 hours
# Protocol: as §2, §3, §4
# IL1-beta = assay: CC-93269-induced IL1-beta secretion, co-culture of PBMCs and K562-BCMA cells (MSD)
# Protocol: Co-cultures of PBMCs, target K562-BCMA cells and CC-93269 were prepared as for FIG. 9. At 6-, 24- and 48-hours post-incubation, the cell culture media was collected and levels of IL1-beta in the supernatant were assessed using an MSD assay (FIG. 13A). […] The circles indicate independent donors and the bars indicate median values; not all donors are shown because a data cut-off for the bottom ~10% of IL1-beta concentrations, below 100 pg/ml, was used to eliminate small changes that could skew the result and to increase confidence in results.
# (§5) Fresh PBMCs were isolated from the blood (buffy coat) of healthy human volunteers by Ficoll based cell separation. The percentage of CD3+ T-cells (total) in the PBMCs was quantified by flow cytometry. The isolated PBMCs were seeded in 12 well plates at a concentration of 1.5×10^6 cells/ml and treated with 1 nM Compound 1 (CC-92480) or control DMSO overnight (~17 hours). After overnight incubation, target K562-BCMA cells were added to the wells at a ratio of 5:1, T-cells to target cells, followed by incubation with CC-93269 at various concentrations. […]
# (§6) At 6, 24 and 48 hours post-incubation, the cell culture media was collected from all samples, spun down at 300 g for 5 minutes to remove cells and the supernatant was subjected to cytokine analysis to quantify secreted levels of IL1-beta using an MSD assay.
# IL-6 [3] = assay: CC-93269-induced IL-6 secretion, co-culture of PBMCs and H929 multiple myeloma cells (MSD); conditions: 1 nM Compound 1 pre-treatment overnight, washed out; two donors
# Protocol: Fresh PBMCs were isolated from healthy volunteers, the percentage of CD3+ T-cells (total) was quantified by flow cytometry, and the PBMCs were treated with 1 nM Compound 1 (CC-92480) or control DMSO overnight. The next morning, target H929 cells were added to the wells at a ratio of 5:1, T-cells to target cells, followed by addition of CC-93269 at indicated concentrations. At 6-, 24- and 48-hours post-incubation, the cell culture was collected and levels of IL-6 in the supernatant were assessed using an MSD assay.
# as §5, with “of” for “of healthy”, “incubation, the cells were washed to remove CC-92480, before” for “incubation,”, “H929” for “K562-BCMA”, “cells.” for “cells, followed by incubation with CC-93269 at various concentrations.”
# as §6, with “The co-culture was then incubated with CC-93269 at various concentrations. At” for “At”, “IL-6” for “IL1-beta”, “assay. […]” for “assay.”
Compound,LPS-induced IL-6 secretion from monocytes (IL-6 [1]),LPS-induced IL-6 secretion from monocytes (IL-6 [2]),CC-93269-induced TNF-alpha secretion from PBMCs with K562 target cells (TNF-alpha),CC-93269-induced IL-2 secretion from PBMCs with K562 target cells (IL-2),"secretion of IL1-beta associated with CC-93269 activity, PBMCs + K562-BCMA (IL1-beta; 1 nM Compound 1 pre-treatment overnight)","median reduction in IL1-beta levels relative to DMSO control (IL1-beta; Compound 1 pre-treatment, 10 ng/ml CC-93269, 24 hours, PBMCs from 15 healthy donors)","secretion of IL-6 associated with CC-93269 activity, PBMCs + multiple myeloma cells (H929) (IL-6 [3])"
"Nc1cccc2c1C(=O)N(C1CCC(=O)NC1=O)C2=O (stereo not shown) [Pomalidomide, 4-amino-2-(2,6-dioxopiperidine-3-yl)isoindoline-1,3-dione]",diminished,–,–,–,–,–,–
"Nc1cccc2c1CN(C1CCC(=O)NC1=O)C2=O (stereo not shown) [Lenalidomide, 3-(4-amino-1-oxo-2,3-dihydro-1H-isoindol-2-yl) piperidine-2,6-dione]",diminished,–,–,–,–,–,–
"O=C1CC[C@H](N2Cc3c(OCc4ccc(CN5CCOCC5)cc4)cccc3C2=O)C(=O)N1 [Iberdomide, (S)-3-(4-((4-(morpholinomethyl)benzyl)oxy)-1-oxoisoindolin-2-yl)piperidine-2,6-dione]",diminished,–,–,–,–,–,–
"N#Cc1ccc(N2CCN(Cc3ccc(COc4cccc5c4CN(C4CCC(=O)NC4=O)C5=O)cc3)CC2)c(F)c1 (stereo not drawn) [Compound 1, 4-(4-(4-(((2-(2,6-dioxopiperidin-3-yl)-1-oxoisoindolin-4-yl)oxy)methyl)benzyl)piperazin-l-yl)-3-fluorobenzonitrile]",diminished,diminished,potentiates,potentiates,diminished/attenuated; also recorded: suppressed,ten-fold,diminished/attenuated
